Twelve compounds from paper PMC4842970, “Bioactivity Focus of α-Cyano-4-hydroxycinnamic acid (CHCA) Leads to Effective Multifunctional Aldose Reductase Inhibitors” (Scientific Reports, 2016) can be followed below.

Like-named read-outs stand apart in the source and are kept apart here.

One series deals with T1, human ALR2 (Homo sapiens, UniProt P15121).
T1 construct: purchased WAKO Pure Chemical Industries, Ltd. (Japan); host or cells: baculovirus-insect cell expression system
Nature of the series: ALR2 inhibition (in vitro reduction of D,L-glyceraldehyde). The series is classed as biochemical. Here is the method:
Human ALR2 was purchased from WAKO Pure Chemical Industries, Ltd. (Japan), which was purified from the culture medium of baculovirus-insect cell expression system. […] ALR2 inhibition was determined spectrophotometrically according to the procedure described previously.

The nature of series [1]: ORACFL radical absorbance capacity assay. From the text:
With the CHCA scaffold, we hypothesized that 5a–j should have antioxidant activity. Therefore, a radical absorbance capacity assay (ORACFL)[41] was employed to assess their capacities. This method is based on the inhibition of peroxyl-radical-induced oxidation initiated by thermal decomposition of azo-compounds, in this case 2,2′-azo-bis (2-amidinopropane) dihydrochloride (AAPH). Trolox (6-hydroxy-2,5,7,8-tetramethylchroman-2-carboxylic acid) was used as a standard reference. Data is expressed as micromoles of Trolox equivalents (TE) per […] of sample (μmol TE/ml or U/ml).
Antioxidant capacity was determined according to the procedure described previously.

Where [2] appears, read: human ALR2, D,L-glyceraldehyde as substrate, read-out: IC50 (ALR2 inhibition).

Usually IC50 stands for the concentration that gives 50% inhibition. With `N#CC(=Cc1ccc(O)cc1)C(=O)O` [CHCA, α-cyano-4-hydroxycinnamic acid], on human ALR2, the IC50 came out at 133 ± 1.8 nM. The ORAC was determined as 52.3 ± 3.1 U/ml in series [1] (3.125 μg/ml), 51.2 ± 1.1 U/ml in series [1] (6.25 μg/ml) and 48.8 ± 1.3 U/ml in series [1] (12.5 μg/ml).
In the case of `CC(=O)N1CCC[C@H]1C(=O)NCCNC(=O)/C(C#N)=C/c1ccc(O)cc1` [Compound 5a, (S,E) - 1 - acetyl -N-(2-(2-cyano-3-(4-hydroxyphenyl)acrylamido)ethyl)pyrroli-dine-2-carboxamide], the IC50 at human ALR2 (setting [2]) was 137 ± 2.9 nM. Moreover, the ORAC is listed as 57.0 ± 2.3 U/ml in series [1] (3.125 μg/ml), 52.4 ± 2.1 U/ml in series [1] (6.25 μg/ml) and 49.8 ± 1.7 U/ml in series [1] (12.5 μg/ml).
For `CC(=O)N1CCC[C@@H]1C(=O)NCCNC(=O)/C(C#N)=C/c1ccc(O)cc1` [Compound 5b, (R,E) -1-acetyl - N - (2-(2-cyano-3-(4-hydroxyphenyl)acrylamido)ethyl)pyrroli-dine-2-carboxamide] the same measures were 136 ± 2.4 nM, 47.1 ± 2.4 U/ml, 44.1 ± 2.5 U/ml and 42.9 ± 3.3 U/ml.
Usually melting point stands for the temperature, or range, at which the solid turns liquid. `CC(=O)N[C@@H](COCc1ccccc1)C(=O)NCCNC(=O)/C(C#N)=C/c1ccc(O)cc1` [Compound 5c, (S,E) – N - (2 - (2-acetamido-3-(benzyloxy)propanamido)ethyl)-2-cyano-3-(4-hydroxyphenyl)acrylamide] registered a melting point of 176 to 178 °C. Besides, at human ALR2 (setting [2]), the IC50 turned out to be 316 ± 6.2 nM. In series [1] (3.125 μg/ml), this compound displayed an ORAC of 32.4 ± 1.8 U/ml. The compound also had an ORAC in series [1] (6.25 μg/ml) of 30.4 ± 1.7 U/ml. The same compound gave an ORAC in series [1] (12.5 μg/ml) of 26.4 ± 2.9 U/ml.
The compound `CC(=O)N[C@H](COCc1ccccc1)C(=O)NCCNC(=O)/C(C#N)=C/c1ccc(O)cc1` [Compound 5d, (R,E) – N - (2 - (2-acetamido-3-(benzyloxy)propanamido)ethyl)-2-cyano-3-(4-hydroxyphenyl)acrylamide] gave a melting point of 175 to 177 °C. At human ALR2 (setting [2]), the IC50 worked out at 404 ± 7 nM. Moreover, the ORAC in series [1] (3.125 μg/ml) is 38.3 ± 1.9 U/ml. This compound also came in with an ORAC in series [1] (6.25 μg/ml) of 35.4 ± 3.2 U/ml. In addition, the ORAC in series [1] (12.5 μg/ml) turned out to be 33.3 ± 4.1 U/ml.
As to `CC(=O)N[C@@H](COCc1ccccc1)C(=O)NCCCNC(=O)/C(C#N)=C/c1ccc(O)cc1` [Compound 5e, (S,E) – N - (3-(2-acetamido-3-(benzyloxy)propanamido)propyl)-2-cyano-3-(4-hydroxyphenyl)acrylamide], the half-inhibitory concentration (IC50) at human ALR2 (setting [2]) came out at 99.8 ± 2 nM. The ORAC in series [1] (3.125 μg/ml) was 65.7 ± 2.7 U/ml; in series [1] (6.25 μg/ml) it was 62.6 ± 1.5 U/ml; in series [1] (12.5 μg/ml), 60.4 ± 2.2 U/ml.
On to `CC(C)(C)C(=O)N[C@@H](COCc1ccccc1)C(=O)NCCNC(=O)/C(C#N)=C/c1ccc(O)cc1` [Compound 5g, (S,E) - N - (2-(2-pivalamido-3-(benzyloxy)propanamido)ethyl)-2-cyano-3-(4-hydroxyphenyl)acrylamide], for which, at human ALR2 (setting [2]), the IC50 came out at 273 ± 4.6 nM. Also, the ORAC in series [1] (3.125 μg/ml) is on record as 38.3 ± 2.6 U/ml; in series [1] (6.25 μg/ml), 33.9 ± 1.4 U/ml; in series [1] (12.5 μg/ml), 30.4 ± 3.7 U/ml.
Take `CC(C)(C)C(=O)N[C@H](COCc1ccccc1)C(=O)NCCNC(=O)/C(C#N)=C/c1ccc(O)cc1` [Compound 5h, (R,E) - N - (2-(2-pivalamido-3-(benzyloxy)propanamido)ethyl)-2-cyano-3-(4-hydroxyphenyl)acrylamide]: at human ALR2 (setting [2]), the IC50 was 252 ± 4.6 nM. The ORAC in series [1] (3.125 μg/ml) is listed as 50.3 ± 3.2 U/ml; in series [1] (6.25 μg/ml), 45.2 ± 1.3 U/ml; in series [1] (12.5 μg/ml) it was 42.8 ± 1.1 U/ml.
As to `CC(C)(C)C(=O)N[C@@H](COCc1ccccc1)C(=O)NCCCNC(=O)/C(C#N)=C/c1ccc(O)cc1` [Compound 5i, (S,E) - N - (3-(2-pivalamido-3-(benzyloxy)propanamido)propyl)-2-cyano-3-(4-hydroxyphenyl)acrylamide], the IC50 at human ALR2 (setting [2]) is 221 ± 3.9 nM. The ORAC is 36.4 ± 3.5 U/ml in series [1] (3.125 μg/ml), 35.6 ± 3.9 U/ml in series [1] (6.25 μg/ml) and 35.3 ± 2.1 U/ml in series [1] (12.5 μg/ml).
Take `CC(C)(C)C(=O)N[C@H](COCc1ccccc1)C(=O)NCCCNC(=O)/C(C#N)=C/c1ccc(O)cc1` [Compound 5j, (R,E) - N - (3-(2-pivalamido-3-(benzyloxy)propanamido)propyl)-2-cyano-3-(4-hydroxyphenyl)acrylamide]: the IC50 at human ALR2 (setting [2]) was 247 ± 4.5 nM. For the same compound, the ORAC came to 38.6 ± 1.9 U/ml in series [1] (3.125 μg/ml), 35.3 ± 1.7 U/ml in series [1] (6.25 μg/ml) and 30.6 ± 2.2 U/ml in series [1] (12.5 μg/ml).
For the compound `O=c1c2cc(O)c(O)cc2oc2cc(O)c([C@@H]3O[C@H](CO)[C@@H](O)[C@H](O)[C@H]3O)c(O)c12` [Mangiferin, reference compound], on human ALR2 (setting [2]), the concentration for half-maximal inhibition (IC50) stood at 138 ± 2.2 nM. For the same compound, the figures for the ORAC in series [1] (3.125 μg/ml), in series [1] (6.25 μg/ml) and in series [1] (12.5 μg/ml) were 75.3 ± 0.4 U/ml, 74.8 ± 0.8 U/ml and 73.2 ± 7.2 U/ml, respectively.
With `Cc1c(C)c2c(c(C)c1O)CCC(C)(C(=O)O)O2` (stereo not shown) [Trolox, 6-hydroxy-2,5,7,8-tetramethylchroman-2-carboxylic acid, reference compound], the ORAC in series [1] (3.125 μg/ml) came out at 95.3 ± 3.7 U/ml; in series [1] (6.25 μg/ml), 92.8 ± 2.7 U/ml; in series [1] (12.5 μg/ml), 85.2 ± 4.3 U/ml.
